Measurements reported in patent US12642792B2, “CA2-IL15 fusion proteins for tunable regulation” (Obsidian Therapeutics, Inc., priority 2019, dated 2026).

Columns and labels:
[1] = test system: cord blood-derived NK cells; experiment: Expression of constitutive and regulated mbIL15 in cord blood NK cells in response to ACZ (FACS); format: cell-based, human; conditions: NK cells transduced with IL15-293
Protocol: Cryopreserved mononuclear cell-fractionated cord blood units were obtained from BioBridge Global. Cord blood was diluted 1:1 with phosphate-buffered saline (PBS) and centrifuged over a cushion of Ficoll-Paque+(Sigma Cat. No. GE17-1440-02). The buffy coat comprising mononuclear cells (MNC) was collected, and the MNC were washed and counted. NK cells were isolated from MNC using EasySep Human NK Cell Isolation Kit (Stemcell Technologies Cat. No. 17955). NK cells were counted and checked for purity by FACS using CD56, CD16, CD3 and viability stain.
One day prior to NK cell isolation as described in Example 8, feeder cells (K562 cells expressing 4-1BBL and mbIL-21) were thawed in complete NK cell media (RPMI with Glutamax (ThermoFisher), 10% heat-inactivated fetal bovine serum (Gibco), 1× Penicillin/Streptomycin, 1 mM Sodium Pyruvate, 1×HEPES, 50 μM 2-Mercaptoethanol). On the day of NK cell isolation, 10×10^6 feeder cells were treated with mitomycin C to inhibit their proliferation and washed to remove excess drug. […] NK cell cultures were expanded by replenishing cell cultures with NK cell media and rhIL2 every two days, and analyzed by FACS for NK cell expansion. […]
mbIL15 expression was determined by flow cytometry using two staining reagents: IL15Ra-Fc and an anti-CD56 antibody. mbIL15+ cell frequency was determined relative to the number of NK cells as determined by the anti-CD56 antibody. […]

TIL = experiment: Expression of constitutive and regulated mbIL15 in TIL in response to ACZ (flow cytometry); format: cell-based, human; conditions: TIL transduced with IL15-293
Protocol: HEK293T cells were seeded on collagen coated tissue culture plates until 70% confluent. Cells were transfected with pELNS transfer vector carrying constitutive (IL15-292) or regulated (IL15-293) IL15 constructs, as well as packaging plasmids (pRSV.REV, pMDLg/pRRE and OT-BaEVg-002 (SEQ ID NO: 51)) using Lipofectamine 3000 transfection reagent in Opti-MEM media. Media was replaced 6-8 hrs post-transfection with serum-free media. Supernatants containing virus were harvested 24 hr post-transfection, fresh media was added, and supernatants were harvested again at 48 hr post-transfection. Viral supernatants were filtered to remove debris and concentrated by low speed ultracentrifugation. Virus were resuspended, aliquoted and stored at −80 C freezer.
96-well non-coated tissue culture plates were incubated with 35 μg per mL RetroNectin (Takara Bio) in PBS for 2 h at 37° C. or overnight at 4° C. RetroNectin was removed and the plates washed with PBS. […]
mbIL15 expression was determined by flow cytometry using two staining reagents: fluorochrome-conjugated anti-IL15 antibody as well as a recombinant protein comprised of extracellular domain of IL15Ra fused to human IgG1 Fc domain (IL15Ra-Fc). mbIL15+ cell frequency was determined based on co-staining with anti-IL15 and IL15Ra-Fc (identified as the IL15+IL15Ra-Fc+ double positive population).

Human primary T cells = experiment: In vitro antigen-independent expansion of T cells expressing constitutive or ACZ-regulated mbIL15 (cell numbers by flow cytometry); format: cell-based; conditions: 2 ng/mL exogenous IL15
Protocol: Human primary T cells capable of expressing constitutive mbIL15 or ACZ-regulated mbIL15 were prepared in accordance with methods described in Example 1 above.
After T cell transduction and expansion, CD3/CD28 beads were removed using magnets, cells were washed twice, resuspended in fresh media and counted. Cells were plated in 12-well plates at 1×10^6 in 2 mL. One well of untransduced cells was cultured in the presence of 2 ng/mL IL15 as a control. T cells expressing regulated constructs were cultured in the absence or presence of acetazolamide (ACZ, 30, 10, 3, 1, 0.3 μM). Cell numbers were monitored by flow cytometry every 3-4 days and cells were cultured for 10-12 days. At each time point 100 μL of cells were collected from wells and analyzed by flow cytometry. Cells were split as needed. Cell cultures were maintained in 12-well plates by taking a portion and adding media in a new plate. Volumes for each well were recorded before and after split to calculate final volume in cell number assessment. IL15 or ACZ were replenished at final concentration of the fresh media added during each split.
T cell numbers were determined by flow cytometry. Empty vector (EV) transduced cell numbers decreased to background levels between 3-5 days in the absence of IL15, and cells expanded 11-fold in the presence of 2 ng/mL exogenous IL15 (FIG. 3A). […]

Row | Compound | Effect of ACZ on mbIL15 in transduced NK [1] | Effect of ACZ on mbIL15 in transduced TIL (TIL) | Expansion of empty vector (EV) transduced T cells in the presence of exogenous IL15 (Human primary T cells)
1 | CC(=O)Nc1nnc(S(N)(=O)=O)s1 [ACZ, acetazolamide, reference compound] | induces CA2 DRD-regulated mbIL15 in transduced NK | induces CA2 DRD-regulated mbIL15 in transduced TIL | –
2 | exogenous IL15: exogenous IL15 (2 ng/mL) added to empty vector transduced T cells as control [reference compound] | – | – | 11 -fold
